Reference: patent US6218431A, “Substituted biphenyls” (Bayer Corporation, priority 1997, dated 2001)

biological target: T1, glucagon receptor (Homo sapiens, UniProt P47871); experiment: glucagon receptor binding assay (125I-glucagon, CHO-HGR membranes); details: 20 μM; reported where 20 μM did not reduce glucagon binding by 50%
T1 construct: expressed in transfected cells; host or cells: Chinese Hamster Ovary cells (CHO-HGR), membranes
How it was run: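 Membranes from CHO cells expressing glucagon receptor (10 ug protein) in Tris pH 7.4 buffer with EDTA, BSA and bacitracin, incubated with test compound and 125I-glucagon (9 fmol) 60 min at room temperature. Bound radioactivity counted after filtration; nonspecific binding defined with 1 μM native glucagon; 0.5% DMSO.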

T1 sequence (P47871 26-477): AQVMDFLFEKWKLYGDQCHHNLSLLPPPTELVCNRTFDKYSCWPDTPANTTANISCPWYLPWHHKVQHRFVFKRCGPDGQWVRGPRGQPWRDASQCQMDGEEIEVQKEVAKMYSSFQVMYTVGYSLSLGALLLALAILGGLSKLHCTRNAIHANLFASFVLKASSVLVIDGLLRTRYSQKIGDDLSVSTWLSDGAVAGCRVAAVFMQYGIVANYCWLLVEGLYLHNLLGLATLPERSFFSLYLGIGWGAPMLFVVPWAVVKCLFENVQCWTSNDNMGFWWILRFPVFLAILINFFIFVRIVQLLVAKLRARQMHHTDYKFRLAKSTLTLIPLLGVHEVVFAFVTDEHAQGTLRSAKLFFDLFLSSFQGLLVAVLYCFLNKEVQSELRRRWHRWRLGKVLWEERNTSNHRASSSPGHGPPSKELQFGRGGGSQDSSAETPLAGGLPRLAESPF

inhibition at 20 µM [%] | % Inhibition (20 μM) [%] | SMILES
46 | – | CCCCCc1c(C(C)C)nc(C(C)C)c(CO)c1-c1ccc(F)c(C(O)c2ccc(F)cc2)c1 (stereo not drawn) [Example 181, 2,6-Diisopropyl-3-hydroxymethyl-4-[4-fluoro-3-(α-hydroxy-4-fluorobenzyl)phenyl]-5-pentylpyridine]
46.3 | – | CC(C)c1nc(C(C)C)c(CN2CCCC2)c(-c2ccc(F)cc2)c1CO [Example 71, 2,6-Diisopropyl-3-hydroxymethyl-4-(4-fluorophenyl)-5-(pyrrolindino-methyl)pyridine]
5.18 | – | CC(C)c1nc(C(C)C)c(Cn2ccnc2)c(-c2ccc(F)cc2)c1CO [Example 76, 2,6-Diisopropyl-3-hydroxymethyl-4-(4-fluorophenyl)-5-(imidazol-1-yl)-methylpyridine]
27.8 | – | CC(C)c1nc(C(C)C)c(C(O)c2ccccc2)c(-c2ccc(F)cc2)c1CO (racemic) [Example 96, (±)-2,6-Diisopropyl-3-hydroxymethyl-4-(4-fluorophenyl)-5-(hydroxy-phenylmethyl)pyridine]

Continued, compound first:

SMILES | inhibition at 20 µM [%] | % Inhibition (20 μM) [%]
CCCC=Cc1c(C(C)C)nc(C(C)C)c(CO)c1-c1ccccc1OCc1ccccc1 [Example 162, 2,6-Diisopropyl-3-hydroxymethyl-4-(2-benzyloxyphenyl)-5-(pent-1-enyl)pyridine] | 13.9 | –
C=CCC(O)c1c(C(C)C)nc(C(C)C)c(CCCCC)c1-c1ccc(F)cc1 (racemic) [Example 116] | 17 | –
CC(C)=Cc1c(C)nc(C)c(CO)c1-c1ccccc1 [Example 2] | 2.73 | –
CCCCCc1c(C)nc(C)c(CO)c1-c1ccccc1 [Example 4] | 1.98 | –
CCCC=Cc1c(C(C)C)nc(C(C)C)c(CO)c1-c1ccc(CC)cc1 [Example 131, 2,6-Diisopropyl-3-hydroxymethyl-4-(4-ethylphenyl)-5-(pent-1-enyl)-pyridine] | 37.3 | –
CCC/C=C/c1c(C(C)C)nc(C(C)C)c(CO)c1-c1ccc(C(F)(F)F)cc1 [Example 125, 2,6-Diisopropyl-3-hydroxymethyl-4-[(4-trifluoromethyl)phenyl]-5(pent-1-enyl)pyridine] | 31.6 | –
CCCCCc1c(C(C)C)nc(C(C)C)c(CO)c1-c1cccc(OC)c1 [Example 171, 2,6-Diisopropyl-3-hydroxymethyl-4-(3-methoxyphenyl)-5-pentylpyridine] | – | 48.37
CCCC=Cc1c(C(C)C)nc(C(C)C)c(CO)c1-c1ccc(S(C)(=O)=O)cc1 [Example 176, 2,6-Diisopropyl-3-hydroxymethyl-4-[4-(methylsulfonyl)phenyl]-5-(pent-1-enyl)pyridine] | 13.8 | –
CCCCCc1c(COC)nc(C(C)C)c(CO)c1-c1ccc(F)cc1 [Example 201, 2-Methoxymethyl-3-pentyl-4-(4-fluorophenyl)-5-hydroxymethyl-6-isopropylpyridine] | 46.7 | –
C=Cc1c(CC)nc(CC)c(CO)c1-c1ccccc1 [Example 8] | 17 | –
CC(C)c1nc(C(C)C)c(CN2CCOCC2)c(-c2ccc(F)cc2)c1CO [Example 69, 2,6-Diisopropyl-3-hydroxymethyl-4-(4-fluorophenyl)-5-(morpholinomethyl)pyridine] | 40.2 | –
CCCC=Cc1c(C(C)C)nc(C(C)C)c(CO)c1-c1ccc([S+](C)[O-])cc1 (stereo not shown) [Example 175, 2,6-Diisopropyl-3-hydroxymethyl-4-[4-(methylsulfinyl)phenyl]-5-(pent-1-enyl)pyridine] | 40.9 | –
CCCC=Cc1c(C(C)C)nc(C(C)C)c(CO)c1-c1cccc(OCc2ccccc2)c1 [Example 152, 2,6-Diisopropyl-3-hydroxymethyl-4-(3-benzyloxyphenyl)-5-(pent-1-enyl)pyridine] | 25.4 | –
CCCC=Cc1c(C(C)C)nc(C(C)C)c(CO)c1-c1cccc(Cl)c1 [Example 145, 2,6-Diisopropyl-3-hydroxymethyl-4-(3-chlorophenyl)-5-(pent-1-enyl)-pyridine] | 41.4 | –

same assay, conditions: 125I-glucagon; 60 min at room temperature; read-out: IC50

IC50 [nM] | SMILES
1500 | Cc1cccc(CCCc2c(C(C)C)nc(C(C)C)c(CO)c2-c2ccc(F)cc2)c1 [Example 85, 2,6-Diisopropyl-3-hydroxymethyl-4-(4-fluorophenyl)-5-[3-(3-methyl-5-phenyl)propyl]pyridine]
750 | Cc1ccccc1/C=C/c1c(C(C)C)nc(C(C)C)c(CO)c1-c1ccc(F)cc1 [Example 40, 2,6-Diisopropyl-3-hydroxymethyl-4-(4-fluorophenyl)-5-[2(E)-(2-methyl-phenyl)ethenyl]pyridine]
1900 | COc1ccc(SCc2c(C(C)C)nc(C(C)C)c(CO)c2-c2ccc(F)cc2)cc1 [Example 56, 2,6-Diisopropyl-3-hydroxymethyl-4-(4-fluorophenyl)-5-[(4-methoxy-phenyl)thio]methylpyridine]
8000 | CCCCCc1c(C(C)OCC)nc(C(C)C)c(CO)c1-c1ccc(F)cc1 (stereo not shown) [Example 217, 2-(1-Ethoxyethyl)-3-pentyl-4-(4-fluorophenyl)-5-hydroxymethyl-6-isopropylpyridine]
14000 | CCCCCc1c(C(O)CC)nc(C(C)C)c(CO)c1-c1ccc(F)cc1 (stereo not shown) [Example 212, 2-(1-Hydroxypropyl)-3-pentyl-4-(4-fluorophenyl)-5-hydroxymethyl-6-isopropylpyridine]
700 | Cc1ccc(/C=C/c2c(C(C)C)nc(C(C)C)c(CO)c2-c2ccc(F)cc2)cc1 [Example 42, 2,6-Diisopropyl-3-hydroxymethyl-4-(4-fluorophenyl)-5-[2(E)-(4-methyl-phenyl)ethenyl]pyridine]
1000 | CC(C)c1nc(C(C)C)c(CSc2cccc(F)c2)c(-c2ccc(F)cc2)c1CO [Example 59, 2,6-Diisopropyl-3-hydroxymethyl-4-(4-fluorophenyl)-5-[(3-fluoro-phenyl)thio]methylpyridine]
1500 | CC(C)c1nc(C(C)C)c(CSc2ccccc2)c(-c2ccc(F)cc2)c1CO [Example 47, 2,6Diisopropyl-3-hydroxymethyl-4-(4fluorophenyl)-5[(phenylthio)-methyl]pyridine]
600 | CC(C)c1nc(C(C)C)c(CO)c(-c2ccc(F)cc2)c1C=CCCc1ccccc1 [Example 38, 2,6-Diisopropyl-3-hydroxymethyl-4-(4-fluorophenyl)-5-(4phenyl-1-butenyl)pyridine]
600 | Cc1cccc(/C=C/c2c(C(C)C)nc(C(C)C)c(CO)c2-c2ccc(F)cc2)c1 [Example 41, 2,6-Diisopropyl-3-hydroxvmethyl-4-(4fluorophenyl)-5-[2(E)-(3-methyl-phenyl)ethenyl]pyridine]
800 | CCCCCc1c(CCC(C)C)nc(C(C)C)c(CO)c1-c1ccc(F)cc1 [Example 229, 2-Isopropyl-3-hydroxymethyl-4-(4-fluorophenyl)-5-pentyl-6-(3-methylbutyl)pyridine]
1100 | CCCCCC=Cc1c(C(C)C)nc(C(C)C)c(CO)c1-c1ccc(F)cc1 [Example 32, 2,6-Diisopropyl-3-hydroxymethyl-4-(4-fluorophenyl)-5-(1-heptenyl)-pyridine]
900 | Cc1ccc(SCc2c(C(C)C)nc(C(C)C)c(CO)c2-c2ccc(F)cc2)cc1 [Example 50, 2,6-Diisopropyl-3-hydroxymethyl-4-(4-fluorophenyl)-5-[((4-methyl)-phenyl)thio]methylpyridine]

The remaining lines, values behind:

SMILES | IC50 [nM]
CCCC=Cc1c(C(C)C)nc(C(C)C)c(CO)c1-c1ccc(Cl)cc1 [Example 143, 2,6-Diisopropyl-3-hydroxymethyl-4-(4-chlorophenyl)-5-(pent-1-enyl)pyridine] | 900
C=Cc1nc(C(C)C)c(CO)c(-c2ccc(F)cc2)c1CCCCC [Example 214, 2-Ethenyl-3-pentyl-4-(4-fluorophenyl)-5-hydroxymethyl-6-isopropylpyridine] | 5000
CC(C)c1cc(C(C)C)c(CSc2c(F)c(F)cc(F)c2F)c(-c2ccc(F)cc2)c1CO [Example 288] | 2000
CC1=CC(C)(C)Cc2c1nc(C(C)C)c(CO)c2-c1ccc(F)cc1 [Example 236, 2-Isopropyl-3-hydroxymethyl-4-(4-fluorophenyl)-5,6-dihydro-6,6,8-trimethylquinoline] | 4000
CC(C)c1nc(C(C)C)c(C(C)O)c(-c2ccc(F)cc2)c1CSc1ccccc1 (racemic) [Example 113, (±)-2,6-Diisopropyl-3-(1-hydroxyethyl)-4-(4-fluorophenyl)-5-phenylthio-methylpyridine] | 600
CC1=CC(C)(C)Cc2c1nc(C(C)C)c(C(C)O)c2-c1ccc(F)cc1 (stereo not shown) [Example 237, 2-Isopropyl-3-(1-hydroxyethyl)-4-(4-fluorophenyl)-5,6-dihydro-6,6,8-trimethylquinoline] | 1200
CCCC=Cc1c(C(C)C)nc(C(C)C)c(CO)c1-c1ccc(F)c(F)c1 [Example 158, 2,6-diisopropyl-3-hydroxymethyl-4-(3,4-difluorophenyl)-5-(pent-1-enyl)pyridine] | 1800
CCCCCc1c(C(C)C)nc(C(C)C)c(CO)c1-c1ccccc1O [Example 163, 2,6-Diisopropyl-3-hydroxymethyl-4-(2-hydroxyphenyl)-5-pentylpyridine] | 500
COC(C)c1c(C(C)C)nc(C(C)C)c(CO)c1-c1ccc(F)cc1 (racemic) [Example 98, (±)-2,6-Diisopropyl-3-hydroxymethyl-4-(4-fluorophenyl)-5-(1-methoxyethyl)pyridine] | 14000
CCCc1c(C(C)C)cc(C(C)C)c(C(C)O)c1-c1ccc(F)cc1 (single isomer, unassigned; (+)) [Example 245, (+)-3,5-Diisopropyl-2-(1-hydroxyethyl)-6-propyl-4'-fluoro-1,1'-biphenyl] | 300
CC(C)=Cc1c(C(C)C)nc(C(C)C)c(CO)c1-c1ccccc1 [Example 11] | 8000

same assay, conditions: IC50, 125I-glucagon; 60 min at room temperature

SMILES | IC50 [nM]
CCCCCc1c(C(O)CCC)nc(C(C)C)c(CO)c1-c1ccc(F)cc1 (stereo not shown) [Example 211, 2-(1-Hydroxybutyl)-3-pentyl-4-(4-fluorophenyl)-5-hydroxymethyl-6-isopropylpyridine] | 19000
